According to the supplement of paper PMC12463676, “Small-molecule dissolution of stress granules by redox modulation benefits ALS models” (Nature Chemical Biology, 2025):

What was measured:
potassium arsenate = compound: O=[As]([O-])(O)O.[K+] [potassium arsenate]; experiment: thermal stability z-score vs DMSO; higher = more thermally stabilized by treatment; conditions: HeLa; arsenate concentration 1 mM
Procedure: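 Cellular thermal proteome profiling in HeLa cells treated with 1 mM arsenate for 1 h (DMSO pretreatment), heated to ten temperatures (37-66.3 °C). Soluble protein was quantified by TMT mass spectrometry relative to DMSO controls; the thermal stability score was transformed to a z-score; mean of n = 3 experiments.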

lipoamide = compound: NC(=O)CCCCC1CCSS1 [lipoamide]; experiment: as above; conditions: HeLa, lipoamide concentration 100 µM
Procedure: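 Cellular thermal proteome profiling in HeLa cells. Cells were treated with 100 µM lipoamide for 1 h, with or without 1 mM arsenate for a further 1 h, then heated to ten temperatures (37-66.3 °C), and soluble protein was quantified by TMT mass spectrometry relative to 0.1% DMSO controls. The thermal stability score (sum of log2 fold changes minus the abundance score) was transformed to a z-score; mean of n = 3 experiments.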

[1] = arsenate co-treatment: 1 mM arsenate 1 h
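Also: each temperature applied for 3 min, abundance score taken as mean log2 fold change at the two lowest temperatures, z-score obtained by mean subtraction and division by SD.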

Chain of UniProt Q9ULP9 (Q9ULP9 whole entry): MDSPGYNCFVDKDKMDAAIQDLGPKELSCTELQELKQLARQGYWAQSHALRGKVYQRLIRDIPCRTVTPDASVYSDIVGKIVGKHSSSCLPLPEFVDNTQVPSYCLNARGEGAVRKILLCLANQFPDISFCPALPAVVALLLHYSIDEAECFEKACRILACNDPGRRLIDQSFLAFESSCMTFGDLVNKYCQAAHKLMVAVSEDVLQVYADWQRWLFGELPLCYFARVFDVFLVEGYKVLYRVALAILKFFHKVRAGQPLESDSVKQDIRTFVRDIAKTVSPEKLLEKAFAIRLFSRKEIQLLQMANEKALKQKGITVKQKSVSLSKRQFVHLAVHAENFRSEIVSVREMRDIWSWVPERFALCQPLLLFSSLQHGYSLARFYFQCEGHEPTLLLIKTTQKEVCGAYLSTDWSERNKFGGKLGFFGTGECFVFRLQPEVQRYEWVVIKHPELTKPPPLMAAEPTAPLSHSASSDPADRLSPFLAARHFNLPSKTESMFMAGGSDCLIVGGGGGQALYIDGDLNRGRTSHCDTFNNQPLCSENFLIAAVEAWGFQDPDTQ
Chain of UniProt Q12788 (Q12788 whole entry): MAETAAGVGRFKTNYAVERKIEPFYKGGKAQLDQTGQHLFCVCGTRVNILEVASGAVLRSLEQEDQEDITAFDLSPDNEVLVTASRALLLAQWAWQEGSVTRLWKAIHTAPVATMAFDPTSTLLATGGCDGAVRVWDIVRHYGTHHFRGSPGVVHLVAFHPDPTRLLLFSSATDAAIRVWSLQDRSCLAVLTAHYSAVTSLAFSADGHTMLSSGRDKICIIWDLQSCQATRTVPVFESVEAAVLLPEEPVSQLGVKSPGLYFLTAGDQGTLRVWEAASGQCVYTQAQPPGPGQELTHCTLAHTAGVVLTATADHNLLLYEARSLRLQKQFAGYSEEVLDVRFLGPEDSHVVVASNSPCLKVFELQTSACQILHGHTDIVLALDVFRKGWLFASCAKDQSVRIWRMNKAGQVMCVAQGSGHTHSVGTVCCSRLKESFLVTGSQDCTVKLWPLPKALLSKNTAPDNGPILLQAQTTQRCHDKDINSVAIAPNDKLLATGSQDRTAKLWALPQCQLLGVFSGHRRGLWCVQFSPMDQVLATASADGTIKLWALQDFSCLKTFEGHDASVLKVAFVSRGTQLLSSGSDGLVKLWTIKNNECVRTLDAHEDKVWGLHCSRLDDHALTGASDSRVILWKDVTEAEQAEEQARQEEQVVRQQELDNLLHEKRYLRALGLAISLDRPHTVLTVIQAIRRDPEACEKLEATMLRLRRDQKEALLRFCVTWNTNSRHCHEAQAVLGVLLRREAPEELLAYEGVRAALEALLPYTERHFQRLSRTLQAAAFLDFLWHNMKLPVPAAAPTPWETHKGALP
Chain of UniProt Q6NXT6 (Q6NXT6 whole entry): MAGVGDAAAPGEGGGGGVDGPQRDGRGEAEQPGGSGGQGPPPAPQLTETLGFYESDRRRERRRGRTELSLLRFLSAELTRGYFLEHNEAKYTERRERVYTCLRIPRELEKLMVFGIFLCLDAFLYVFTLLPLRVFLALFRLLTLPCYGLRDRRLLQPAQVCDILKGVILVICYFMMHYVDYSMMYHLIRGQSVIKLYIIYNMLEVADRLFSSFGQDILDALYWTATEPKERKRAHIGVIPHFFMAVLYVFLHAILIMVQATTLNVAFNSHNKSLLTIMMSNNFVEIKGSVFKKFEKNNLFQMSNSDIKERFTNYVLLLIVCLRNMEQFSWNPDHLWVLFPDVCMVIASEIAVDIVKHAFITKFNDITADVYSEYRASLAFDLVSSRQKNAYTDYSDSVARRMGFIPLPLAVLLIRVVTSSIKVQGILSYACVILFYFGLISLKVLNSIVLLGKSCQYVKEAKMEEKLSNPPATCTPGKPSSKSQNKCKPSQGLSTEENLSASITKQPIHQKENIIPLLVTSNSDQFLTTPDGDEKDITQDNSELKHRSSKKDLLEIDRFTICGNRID
Chain of UniProt P28347 (P28347 whole entry): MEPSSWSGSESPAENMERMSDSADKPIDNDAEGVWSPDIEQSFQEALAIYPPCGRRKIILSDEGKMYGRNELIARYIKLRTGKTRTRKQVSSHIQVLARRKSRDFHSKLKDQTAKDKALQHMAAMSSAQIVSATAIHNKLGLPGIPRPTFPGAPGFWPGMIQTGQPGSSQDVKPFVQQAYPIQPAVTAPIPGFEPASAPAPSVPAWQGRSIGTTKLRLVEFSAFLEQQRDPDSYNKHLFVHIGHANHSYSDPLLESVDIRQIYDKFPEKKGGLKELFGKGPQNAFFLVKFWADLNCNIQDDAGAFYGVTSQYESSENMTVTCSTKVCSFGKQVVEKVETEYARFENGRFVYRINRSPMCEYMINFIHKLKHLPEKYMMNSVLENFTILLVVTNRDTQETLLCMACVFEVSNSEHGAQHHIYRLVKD
Chain of UniProt Q969Z0 (Q969Z0 whole entry): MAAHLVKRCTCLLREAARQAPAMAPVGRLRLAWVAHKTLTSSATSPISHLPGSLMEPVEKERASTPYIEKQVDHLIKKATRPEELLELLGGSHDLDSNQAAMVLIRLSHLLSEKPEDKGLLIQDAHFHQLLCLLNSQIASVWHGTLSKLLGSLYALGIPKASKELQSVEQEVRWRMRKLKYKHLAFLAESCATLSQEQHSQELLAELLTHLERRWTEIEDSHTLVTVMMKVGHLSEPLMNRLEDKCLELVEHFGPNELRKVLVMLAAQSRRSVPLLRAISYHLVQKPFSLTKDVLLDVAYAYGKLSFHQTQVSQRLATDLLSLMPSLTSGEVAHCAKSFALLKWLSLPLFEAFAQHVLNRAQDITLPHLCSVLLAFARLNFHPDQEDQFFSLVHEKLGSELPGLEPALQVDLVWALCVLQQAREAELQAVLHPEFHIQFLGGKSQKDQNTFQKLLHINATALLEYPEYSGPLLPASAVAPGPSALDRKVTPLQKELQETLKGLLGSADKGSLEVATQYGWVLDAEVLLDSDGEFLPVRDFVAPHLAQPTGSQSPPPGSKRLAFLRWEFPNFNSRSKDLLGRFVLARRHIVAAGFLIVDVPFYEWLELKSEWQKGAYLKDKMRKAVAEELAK
Chain of UniProt Q13428 (Q13428 whole entry): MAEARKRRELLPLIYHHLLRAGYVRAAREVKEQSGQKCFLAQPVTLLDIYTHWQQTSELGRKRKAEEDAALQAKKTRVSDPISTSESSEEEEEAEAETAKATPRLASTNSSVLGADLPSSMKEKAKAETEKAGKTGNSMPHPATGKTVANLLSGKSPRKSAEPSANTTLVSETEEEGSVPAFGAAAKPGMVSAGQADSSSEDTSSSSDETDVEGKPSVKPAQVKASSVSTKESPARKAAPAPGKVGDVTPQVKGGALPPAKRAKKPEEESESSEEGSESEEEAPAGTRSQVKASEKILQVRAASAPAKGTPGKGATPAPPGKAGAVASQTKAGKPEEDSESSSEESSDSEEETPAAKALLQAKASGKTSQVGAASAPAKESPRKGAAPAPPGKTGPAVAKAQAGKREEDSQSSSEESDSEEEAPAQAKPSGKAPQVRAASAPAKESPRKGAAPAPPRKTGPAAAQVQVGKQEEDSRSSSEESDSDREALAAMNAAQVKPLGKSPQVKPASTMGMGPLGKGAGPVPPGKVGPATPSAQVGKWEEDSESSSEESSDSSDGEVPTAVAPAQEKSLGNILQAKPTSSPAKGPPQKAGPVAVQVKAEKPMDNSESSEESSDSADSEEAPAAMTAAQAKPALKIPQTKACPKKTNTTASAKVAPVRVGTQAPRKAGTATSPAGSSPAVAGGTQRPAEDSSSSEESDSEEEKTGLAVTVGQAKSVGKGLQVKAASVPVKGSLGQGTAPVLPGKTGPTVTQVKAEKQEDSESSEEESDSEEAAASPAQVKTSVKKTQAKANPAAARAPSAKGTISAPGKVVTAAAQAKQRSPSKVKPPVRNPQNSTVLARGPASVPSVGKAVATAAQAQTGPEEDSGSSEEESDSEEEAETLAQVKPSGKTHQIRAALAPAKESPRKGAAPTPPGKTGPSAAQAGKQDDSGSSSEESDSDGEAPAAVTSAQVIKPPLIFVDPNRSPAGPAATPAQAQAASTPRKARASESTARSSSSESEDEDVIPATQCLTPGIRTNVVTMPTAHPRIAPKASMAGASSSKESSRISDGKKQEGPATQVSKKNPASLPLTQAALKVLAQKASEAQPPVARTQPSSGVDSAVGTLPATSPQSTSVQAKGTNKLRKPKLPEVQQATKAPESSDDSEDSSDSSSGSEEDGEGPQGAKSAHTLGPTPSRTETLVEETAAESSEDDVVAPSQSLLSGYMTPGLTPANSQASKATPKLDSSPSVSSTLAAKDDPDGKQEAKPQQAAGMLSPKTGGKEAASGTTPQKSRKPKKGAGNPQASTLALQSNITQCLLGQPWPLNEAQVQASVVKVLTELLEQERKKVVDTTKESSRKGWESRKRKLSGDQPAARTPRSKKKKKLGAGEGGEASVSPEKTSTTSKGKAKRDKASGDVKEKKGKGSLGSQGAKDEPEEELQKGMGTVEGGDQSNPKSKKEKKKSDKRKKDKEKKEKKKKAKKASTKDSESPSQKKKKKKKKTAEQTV
Chain of UniProt Q9Y4P3 (Q9Y4P3 whole entry): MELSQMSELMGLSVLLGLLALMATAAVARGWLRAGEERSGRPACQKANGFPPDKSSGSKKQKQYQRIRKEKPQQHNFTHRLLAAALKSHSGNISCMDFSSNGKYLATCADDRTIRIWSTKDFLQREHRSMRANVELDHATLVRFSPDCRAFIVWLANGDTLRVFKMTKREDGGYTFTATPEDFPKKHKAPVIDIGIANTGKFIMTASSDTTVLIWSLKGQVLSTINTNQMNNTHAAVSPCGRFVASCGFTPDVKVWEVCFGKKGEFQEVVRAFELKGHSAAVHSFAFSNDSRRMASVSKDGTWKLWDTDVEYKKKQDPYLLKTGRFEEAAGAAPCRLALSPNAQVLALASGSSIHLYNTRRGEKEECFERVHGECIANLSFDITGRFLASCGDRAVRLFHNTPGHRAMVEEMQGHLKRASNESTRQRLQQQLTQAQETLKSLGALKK
Chain of UniProt O75347 (O75347 whole entry): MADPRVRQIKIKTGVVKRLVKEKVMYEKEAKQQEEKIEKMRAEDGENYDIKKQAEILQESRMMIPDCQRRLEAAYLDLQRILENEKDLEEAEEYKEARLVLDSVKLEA

Row | Target | thermal stability z-score (potassium arsenate) | thermal stability z-score (lipoamide; [1]) | thermal stability z-score (lipoamide; arsenate co-treatment: none)
1 | TAOK1 (UniProt Q7L7X3) | -0.658 | -0.503 | -0.204
2 | TAOK2 (UniProt Q9UL54) | -0.0359 | -0.161 | -0.0781
3 | TAOK3 (UniProt Q9H2K8) | 0.0629 | 0.238 | 0.142
4 | TAP1 (UniProt Q03518) | 1.47 | -0.509 | -0.0614
5 | TAP2 (UniProt Q03519) | 0.366 | -0.828 | -0.526
6 | TAPBP (UniProt O15533) | 0.709 | -3.75 | -2.54
7 | TAPT1 (UniProt Q6NXT6) | -0.606 | 0.869 | 0.562
8 | TARBP1 (UniProt Q13395) | 0.121 | -0.285 | -0.136
9 | TARBP2 (UniProt Q15633) | -0.00318 | 0.357 | 0.542
10 | TARDBP (UniProt Q13148) | -0.755 | 0.125 | 0.504
11 | TARS2 (UniProt Q9BW92) | 0.922 | 0.183 | 0.625
12 | TARS (UniProt P26639) | 0.853 | 0.0423 | -0.0639
13 | TARSL2 (UniProt A2RTX5) | 0.0722 | -0.396 | 0.561
14 | TATDN1 (UniProt Q6P1N9) | 0.169 | 0.263 | 0.514
15 | TAX1BP1 (UniProt Q86VP1) | 0.997 | -0.152 | 0.411
16 | TAX1BP3 (UniProt O14907) | 0.424 | 0.0819 | -0.232
17 | TBC1D2 (UniProt Q9BYX2) | 0.225 | -0.151 | 0.0824
18 | TBC1D2B (UniProt Q9UPU7) | -0.23 | -0.169 | -0.202
19 | TBC1D4 (UniProt O60343) | 0.51 | -0.14 | 0.292
20 | TBC1D5 (UniProt Q92609) | -0.0438 | -0.097 | -0.749
21 | TBC1D9B (UniProt Q66K14) | -0.401 | -0.357 | -0.158
22 | TBC1D10A (UniProt Q9BXI6) | 0.0768 | -0.00261 | -0.137
23 | TBC1D10B (UniProt Q4KMP7) | -0.503 | -0.825 | -0.121
24 | TBC1D13 (UniProt Q9NVG8) | -0.494 | 0.33 | 0.109

Row | Target | thermal stability z-score (potassium arsenate) | thermal stability z-score (lipoamide; [1]) | thermal stability z-score (lipoamide; arsenate co-treatment: none)
25 | TBC1D15 (UniProt Q8TC07) | -0.276 | -0.559 | -0.646
26 | TBC1D17 (UniProt Q9HA65) | -0.0293 | -0.114 | -0.107
27 | TBC1D22A (UniProt Q8WUA7) | -1.19 | -1.16 | -0.15
28 | TBC1D23 (UniProt Q9NUY8) | 0.407 | -0.408 | -0.264
29 | TBC1D24 (UniProt Q9ULP9) | 0.0941 | -0.346 | -0.491
30 | TBCA (UniProt O75347) | 0.264 | 0.458 | 1.12
31 | TBCB (UniProt Q99426) | -1.55 | 0.475 | -0.253
32 | TBCC (UniProt Q15814) | -0.00724 | -0.35 | -0.196
33 | TBCD (UniProt Q9BTW9) | 0.705 | -0.558 | -0.301
34 | TBCE (UniProt Q15813) | -0.0811 | -0.969 | -0.354
35 | TBCEL (UniProt Q5QJ74) | 0.0212 | -0.202 | -0.0108
36 | TBCK (UniProt Q8TEA7) | -0.192 | 0.135 | 0.0192
37 | TBK1 (UniProt Q9UHD2) | -0.00763 | -0.607 | -0.189
38 | TBL1X (UniProt O60907) | 0.341 | 0.835 | -0.0254
39 | TBL1XR1 (UniProt Q9BZK7) | -0.746 | 1.11 | 0.307
40 | TBL2 (UniProt Q9Y4P3) | 0.366 | -0.257 | 0.0669
41 | TBL3 (UniProt Q12788) | -0.338 | 0.0946 | -0.105
42 | TBRG4 (UniProt Q969Z0) | 0.462 | -0.625 | -0.116
43 | TBX3 (UniProt O15119) | 0.206 | 0.163 | -0.0268
44 | TCAF1 (UniProt Q9Y4C2) | 0.396 | 0.246 | 0.355
45 | TCEA1 (UniProt P23193) | -0.117 | 0.138 | 0.297
46 | TCEAL1 (UniProt Q15170) | 0.192 | 0.347 | 0.809
47 | TCEAL4 (UniProt Q96EI5) | -0.306 | 0.347 | 0.201
48 | TCEB1 (UniProt Q15369) | -0.0354 | -0.0847 | -0.122

Row | Target | thermal stability z-score (potassium arsenate) | thermal stability z-score (lipoamide; [1]) | thermal stability z-score (lipoamide; arsenate co-treatment: none)
49 | TCEB2 (UniProt Q15370) | 0.154 | 0.764 | 0.455
50 | TCEB3 (UniProt Q14241) | 0.0043 | -0.0069 | 0.00902
51 | TCERG1 (UniProt O14776) | -0.0887 | 0.7 | 0.361
52 | TCF3 (UniProt P15923) | -0.203 | -0.098 | -0.0941
53 | TCF12 (UniProt Q99081) | -0.203 | -0.124 | -0.0813
54 | TCF25 (UniProt Q9BQ70) | -0.542 | -0.802 | -0.429
55 | TCOF1 (UniProt Q13428) | 0.157 | 0.957 | 0.648
56 | TCP1 (UniProt P17987) | -0.229 | -0.0358 | -0.0779
57 | TCP11L1 (UniProt Q9NUJ3) | 0.586 | -0.328 | 0.00441
58 | TDG (UniProt Q13569) | -0.322 | -0.0217 | -0.0438
59 | TDP1 (UniProt Q9NUW8) | -0.00328 | 0.0423 | -0.0239
60 | TDP2 (UniProt O95551) | 0.242 | 0.0323 | -0.0541
61 | TDRD3 (UniProt Q9H7E2) | -0.796 | -0.448 | 0.0394
62 | TEAD1 (UniProt P28347) | -0.00363 | 0.133 | 0.196
63 | TECR (UniProt Q9NZ01) | -0.077 | -1.46 | -0.891
64 | TEFM (UniProt Q96QE5) | 0.106 | 0.0966 | 0.0631
65 | TELO2 (UniProt Q9Y4R8) | 0.208 | -0.413 | -0.306
66 | TENM3 (UniProt Q9P273) | -0.147 | 0.179 | -0.452
67 | TERF2 (UniProt Q15554) | 0.1 | -0.0516 | -0.042
68 | TERF2IP (UniProt Q9NYB0) | -0.131 | -0.302 | 0.33
69 | TES (UniProt Q9UGI8) | -4.89 | 0.0136 | -0.287
70 | TESC (UniProt Q96BS2) | 0.846 | 0.565 | 0.315
71 | TEX2 (UniProt Q8IWB9) | 0.0716 | 0.11 | -0.0212
